From patent US20240408215A1, “USE OF DIAZIRINE LINKER FOR DRUG CONJUGATES” (HELMHOLTZ ZENTRUM MUNCHEN - DEUTSCHES FORSCHUNGSZENTRUM FUR …, priority 2021, published 2024)

Test: Pulsed UV light release of 7-hydroxycoumarin in homogenous media, with dark intervals
Format: physicochemical
Conditions: FIG. 7

[N-]=[N+]=NCCCCCC(=O)OCC1(COc2ccc3ccc(=O)oc3c2)N=N1 [(3-(((2-oxo-2H-chromen-7-yl)oxy)methyl)-3H-diazirin-3-yl)methyl-6-azidohexanoate]
release of 7-hydroxycoumarin in the dark after the light pulse (1-2 minutes in the dark after each pulse): no additional leaking of payload occurs after ending the pulse | release of 7-hydroxycoumarin upon UV light irradiation (water/EtOH/DMSO (1.0:1.0:0.1), UV light pulses, not attached to agarose): efficient release
